Laboratory results published in US12629374B2, “Antimalarial agents” (Merck Sharp & Dohme LLC, priority 2020, dated 2026).
Where two headings read alike, the source gives them in different places.

System: ring stage parasites
Assay: Parasite growth potency assay, 72 hours, LDH readout
Type: cell-based
How it was run: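 Parasite growth was quantified by LDH assay after a −80 °C freeze-thaw. Before that, compound was incubated for 72 h at 37 °C under humidified gas with ring-stage cultures adjusted to 0.7% parasitemia and 2% haematocrit in serum- and albumax-supplemented RPMI-Hepes.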

[1] = 72 h, parasite growth measured by LDH assay after 72 hours at 37° C., 0.7% rings, 2% haematocrit, read-out: EC50

For `CCC[C@H](c1cccc(C(=O)NC2CC(C)(C)Oc3ccccc32)c1)N1C(=N)NC(CC)(CC)CC1=O` (stereo in doubt) [Example 62A, [1-[1-[3-[(2,2-dimethylchroman-4-yl)carbamoyl]phenyl]butyl]-4,4-diethyl-6-oxo-hexahydropyrimidin-2-ylidene]ammonium; 2,2,2-trifluoroacetate], the EC50 [1] was 0.4 nM.
In the case of `CCC1(CC)CC(=O)N([C@H](c2ccc(S(C)(=O)=O)cc2)c2cccc(C(=O)N[C@H]3CC(C)(C)Oc4ccccc43)c2)C(=N)N1` [Example 115A, [1-[[3-[[(4S)-2,2-dimethylchroman-4-yl]carbamoyl]phenyl]-(4-methylsulfonylphenyl)methyl]-4,4-diethyl-6-oxo-hexahydropyrimidin-2-ylidene]ammonium; 2,2,2-trifluoroacetate], the EC50 [1] is reported as 1 nM.
`CCC1(CC)CC(=O)N([C@H](CCOC)c2cc(F)cc(C(=O)N[C@@H]3c4ccccc4OC3(C)COC)c2)C(=N)N1` (stereo partly drawn) [Example 176B, [4,4-diethyl-1-[(1R)-1-[3-fluoro-5-[[2-(methoxymethyl)-2-methyl-3H-benzofuran-3-yl]carbamoyl]phenyl]-3-methoxy-propyl]-6-oxo-hexahydropyrimidin-2-ylidene]ammonium; 2,2,2-trifluoroacetate] was tested, and the EC50 [1] was 0.9 nM.
In the case of `CC(C)[C@]1(C)CC(=O)N(Cc2cc(F)cc(C(=O)N[C@H]3CCOc4ccccc43)c2)C(=N)N1` [Example 29, [(4S)-1-[[3-[[(4S)-chroman-4-yl]carbamoyl]-5-fluoro-phenyl]methyl]-4-isopropyl-4-methyl-6-oxo-hexahydropyrimidin-2-ylidene]ammonium; 2,2,2-trifluoroacetate], the EC50 [1] is reported as 7.7 nM.
With `CCC1(CC)CC(=O)N([C@@H](c2cccc(OS(=O)(=O)F)c2)c2cccc(C(=O)N[C@H]3CCOc4ccccc43)c2)C(=N)N1` [Example 149B, [1-[[3-[[(4S)-chroman-4-yl]carbamoyl]phenyl]-(3-fluorosulfonyloxyphenyl)methyl]-4,4-diethyl-6-oxo-hexahydropyrimidin-2-ylidene]ammonium; 2,2,2-trifluoroacetate] the EC50 (72 h) was 57.6 nM.
For `CC[C@H](c1cccc(C(=O)N[C@@H]2c3ccccc3C[C@H]2O)c1)N1C(=N)NC(CC)(CC)CC1=O` [Example 208, [4,4-diethyl-1-[1-[3-[[(1R,2R)-2-hydroxyindan-1-yl]carbamoyl]phenyl]propyl]-6-oxo-hexahydropyrimidin-2-ylidene]ammonium; 2,2,2-trifluoroacetate], the EC50 [1] was 0.7 nM.
Compound `CCC1(CC)CC(=O)N([C@H](COC)c2cccc(C(=O)N[C@H]3CCOc4ccccc43)c2)C(=N)N1` [Example 19, [1-[1-[3-[[(4S)-chroman-4-yl]carbamoyl]phenyl]-2-methoxy-ethyl]-4,4-diethyl-6-oxo-hexahydropyrimidin-2-ylidene]ammonium; 2,2,2-trifluoroacetate] has an EC50 [1] of 0.6 nM.
`C#CCC[C@H](c1cccc(C(=O)N[C@H]2CCOc3ccccc32)c1)N1C(=N)NC(CC)(CC)CC1=O` [Example 209, [1-[1-[3-LL(4R)-chroman-4-yl]carbamoyl]phenyl]pent-4-ynyl]-4,4-diethyl-6-oxo-hexahydropyrimidin-2-ylidene]ammonium; 2,2,2-trifluoroacetate] was tested, and the EC50 [1] was 8.9 nM.
Work on `CCC1(CC)NC(=N)N([C@H](CCOC)c2cccc(C(=O)N[C@@H]3c4ccccc4C[C@H]3O)c2)C(=O)C1C` (stereo partly drawn) [Example 227B, 3-[(1R)-1-(4,4-diethyl-2-imino-5-methyl-6-oxo-hexahydropyrimidin-1-yl)-3-methoxy-propyl]-N-[(1R,2R)-2-hydroxyindan-1-yl]benzamide] yielded an EC50 (parasite growth measured by LDH assay after 72 hours at 37° C., 0.7% rings, 2% haematocrit, read-out: EC50) of 1.16 nM.
Compound `CCC1(CC)CC(=O)N(Cc2cccc(C(=O)N[C@@H]3c4ccccc4OCC3O)c2)C(=N)N1` (single isomer, unassigned) [Example 126A, 3-[(4,4-diethyl-2-imino-6-oxo-hexahydropyrimidin-1-yl)methyl]-N-(3-hydroxychroman-4-yl)benzamide] has an EC50 [1] of 19.4 nM.
